Results reported in paper PMC6754406, “Ran pathway-independent regulation of mitotic Golgi disassembly by Importin-α” (Nature Communications, 2019).
Where a SMILES comes first, the peptide text is derived from it. Where no end group is shown, it is not given here. [ ]: non-standard residue; d: D form. pS = N[C@@H](COP(=O)(O)O)C(=O)O

Legend:
[1] = target: T1, Importin-α(ΔIBB) (a.a. 70–524) (Mus musculus, UniProt P52293); experiment: Isothermal titration calorimetry (ITC), Importin-α(ΔIBB); type: binding; details: 200 mM NaCl
T1 construct: Importin-α lacking the IBB domain (a.a. 70–524; hereafter Importin-α(ΔIBB)); GST (N); made in house; host or cells: Escherichia coli Rosetta
Description: Phosphorylation of GM130 on Ser-25 is correlated with p115 dissociation, with this process appearing to be specific to mitosis and being responsible for reduction of p115-mediated vesicle fusion to Golgi membranes[5]–[7],[9],[10]. The N-terminal region of GM130 and the p115 C-terminus interact[11],[12], so we purified recombinant proteins containing these two regions and then assessed their binding affinity by isothermal titration calorimetry (ITC). The wild type GM130 N-terminal region (a.a. 1-85; hereafter GM130-WT) directly bound p115 (a.a. 780–930; hereafter p115-CTD) (Fig. 1a). Furthermore, we examined if GM130 phosphorylation reduces the binding affinity for p115. […] We found in competition-binding assays that p115-CTD pulldown by GST-GM130-S25D was reduced when we added increasing amounts of Importin-α lacking the IBB domain (a.a. 70–524; hereafter Importin-α(ΔIBB)) (Fig. 1c). […] Therefore, we propose that binding of Importin-α to GM130 could be primarily responsbile for preventing interaction between p115 and GM130 during mitosis.
Homo sapiens GM130 (a.a. 1–48), GM130 (a.a. 1–85), and Importin-β were amplified by PCR and ligated into pGEX-6P-1 (GE Healthcare). […]
Binding affinities of different GM130 proteins to Importin-α and Importin-β were measured by ITC (MicroCal iTC200). […] Protein concentrations were determined spectrophotometrically with respective extinction coefficients. […]

[2] = target: T2, Importin-β (Homo sapiens, UniProt Q14974); experiment: Isothermal titration calorimetry (ITC), Importin-β; type: binding; details: for ITC profile (exothermic / endothermic): 25 °C
T2 construct: GST (N, cleaved yes); made in house; host or cells: Escherichia coli Rosetta
T2 sequence (Q14974 whole entry): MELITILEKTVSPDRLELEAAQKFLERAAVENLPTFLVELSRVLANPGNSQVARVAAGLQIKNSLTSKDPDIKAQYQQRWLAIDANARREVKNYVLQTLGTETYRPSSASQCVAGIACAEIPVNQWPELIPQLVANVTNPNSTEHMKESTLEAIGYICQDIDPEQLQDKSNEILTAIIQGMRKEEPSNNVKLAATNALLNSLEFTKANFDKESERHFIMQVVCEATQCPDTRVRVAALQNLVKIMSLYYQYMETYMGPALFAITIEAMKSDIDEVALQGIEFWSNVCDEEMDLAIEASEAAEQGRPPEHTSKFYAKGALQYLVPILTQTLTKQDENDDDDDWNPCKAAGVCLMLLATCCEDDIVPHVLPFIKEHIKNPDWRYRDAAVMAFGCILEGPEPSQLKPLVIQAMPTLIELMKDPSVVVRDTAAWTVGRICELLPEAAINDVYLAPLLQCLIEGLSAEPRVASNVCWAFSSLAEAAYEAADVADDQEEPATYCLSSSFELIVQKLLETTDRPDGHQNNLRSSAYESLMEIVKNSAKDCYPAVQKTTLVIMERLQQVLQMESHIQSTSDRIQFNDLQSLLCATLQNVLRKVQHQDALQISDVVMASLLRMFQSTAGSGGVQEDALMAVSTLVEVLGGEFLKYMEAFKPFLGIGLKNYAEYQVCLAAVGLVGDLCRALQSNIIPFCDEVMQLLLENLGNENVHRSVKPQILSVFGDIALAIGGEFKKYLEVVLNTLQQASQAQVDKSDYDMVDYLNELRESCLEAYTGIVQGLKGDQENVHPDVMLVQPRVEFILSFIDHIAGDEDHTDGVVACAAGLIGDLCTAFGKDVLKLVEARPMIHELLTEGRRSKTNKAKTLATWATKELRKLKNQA
Description: Homo sapiens GM130 (a.a. 1–48), GM130 (a.a. 1–85), and Importin-β were amplified by PCR and ligated into pGEX-6P-1 (GE Healthcare). H. sapiens full-length Importin-α and Mus musculus Importin-α were amplified by PCR and ligated into modified pGEX-6P-1 (GE Healthcare) that produces proteins with 6-His at the C–terminus. Mouse Importin-α shares ~95% identity with human Importin-α over the full protein sequence, so we used the former for biochemical and structural studies. GM130-S25D (a.a. 1–48), GM130-S25D (a.a. 1–85), GM130-S25D/K14A (a.a. 1–85), and GM130-S25D/K34A (a.a. 1–85) mutants were created by PCR-based mutagenesis and were verified by sequencing. A list of primer sequences used in this study is shown in Supplementary Table 1.
Binding affinities of different GM130 proteins to Importin-α and Importin-β were measured by ITC (MicroCal iTC200). All proteins were dialyzed against ITC buffer (20 mM HEPES pH 7.4, 1 mM DTT) with either 50 or 200 mM NaCl. Protein concentrations were determined spectrophotometrically with respective extinction coefficients. ITC was performed at 25 °C. The respective heat changes were fitted using a one-sites binding model.

[3] = tested on: Importin-α associated with GM130; experiment: Immuno-precipitation of Importin-α with GM130 antibody, RO-3306-treated nocodazole-arrested HEK293T cells; type: cell-based; details: RO-3306-treated vs untreated, 10 µM/ml, 2 h; three independent experiments
Method: (§1) To pull down endogenous GM130, HEK293T cells were synchronized via nocodazole treatment and lysed in a buffer containing 50 mM Tris–HCl (pH 7.4), 150 mM NaCl, 1 mM EDTA, 10% glycerol, 1% Triton, 0.15% SDS, protease inhibitor cocktail (Roche), and 1 mM PMSF. Clarified lysates were pre-incubated with GM130 antibody (Abcam ab52649) for 12 h at 4 °C, followed by one hour incubation with IgG sepharose^TM 6 Fast Flow (GE Healthcare). Beads were then washed three times with buffer (20 mM HEPES pH 7.4, 150 mM NaCl, 1.5 mM MgCl2, 10% glycerol, 0.1% Triton). Protein samples were boiled in SDS sample buffer and analyzed by SDS–PAGE, followed by Western blotting analysis.
(§2) To prepare Cdk1 inhibitor treated lysates for GM130 pull-down assays, WT HEK293T cells were synchronized by 30 µM of nocodazole for 13 h, followed by treatment of Cdk1 inhibitor RO-3306 (10 µM/ml) (Sigma, cat#SML0569) for 2 h.
(§3) Sup ple me ntary Figu re 5. Cell-base d e xam ination of the K34A mutation of G M130. a, Representative fluorescent images of w ild-type and two K34A mutant cell lines at metaphase.
(§4) Sca le b a r : 1 0 µm. b, Images of nocodaz o le-ar r e st ed H EK 2 9 3 T ce ll s without (left) and w ith (right) RO-3306 treatment acquired by bright-field illum ination. Sc ale ba r: […]

[4] = tested on: p115 associated with GM130; experiment: Immuno-precipitation of p115 with GM130 antibody, RO-3306-treated nocodazole-arrested HEK293T cells; type: cell-based; details: RO-3306-treated vs untreated, 10 µM/ml, 2 h; three independent experiments
Method: as §1, §2, §3, §4

[5] = tested on: Cdk1; details: 1-h RO-3306 treatment; ref [23]; cited from earlier work
[6] = target: T2, Importin-β; experiment: Size exclusion chromatography co-migration with Importin-β; type: binding; details: Superdex 200, 20 mM HEPES pH 7.4, 50 mM NaCl, 3 mM DTT, 1:1
Method: Fig. 4 Ran and a phosphate moiety repress GM130 and Importin-β interaction. a SEC (Superdex 200) elution profiles for the Importin-β•GST-GM130-WT complex (black line), Importin-β (gray line), and GST-GM130-WT (light gray line). The void volume (Vo) is indicated. b–d The peak fractions of the Importin-β•GST-GM130-WT complex (b), Importin-β (c), and GST-GM130-WT (d) were analyzed by SDS–PAGE and stained with Coomassie blue. e, f ITC titration curves (upper) and binding isotherms (lower) of Importin-β with GM130-NLS WT (e) and GM130-NLS phospho-S25 (f). Kd values are indicated. g Competition binding assay. GST-GM130-S25D and Importin-β were incubated with indicated concentrations of GFP-IBB. Samples pulled down by GST beads were analyzed by SDS–PAGE and stained with Coomassie blue. […] GST-bound samples were analyzed by SDS–PAGE and stained with Coomassie blue. i, k Band intensities of Importin-α or Importin-β from the SDS–PAGE gels in h, j were used to determine averages of bound protein. […]
GST-GM130-WT and GST-GM130-S25D were, respectively, incubated with Importin-β or Importin-α FL in a molar ratio of 1:1. […] Peak fractions were analyzed by SDS–PAGE.

Row | Compound | binding affinity for Importin-α(ΔIBB) vs wild type [1] | ITC profile (exothermic / endothermic) [2] | binding constant relative to wild-type GM130 peptide ([2]; relative to wild-type GM130 peptide) | Importin-α pulldown by GM130 [3] | p115 pulldown by GM130 [4] | block of Cdk1 activity [5] | morphological transition [5] | co-migration with Importin-β by SEC [6]
1 | CC[C@H](C)[C@H](NC(=O)[C@H](CCCCN)NC(=O)[C@H](CCCCN)NC(=O)[C@H](CCCCN)NC(=O)[C@H](CCCCN)NC(=O)[C@H](CCCCN)NC(=O)[C@H](C)NC(=O)CNC(=O)[C@@H](NC(=O)[C@@H]1CCCN1C(=O)[C@@H](NC(=O)CNC(=O)[C@@H]1CCCN1C(=O)[C@H](COP(=O)(O)O)NC(=O)[C@H](CC(N)=O)NC(=O)[C@H](CCCNC(=N)N)NC(=O)[C@H](CCC(N)=O)NC(=O)[C@H](CCC(N)=O)NC(=O)[C@H](Cc1ccc(O)cc1)NC(=O)[C@H](CCC(=O)O)NC(=O)[C@H](CCCNC(=N)N)NC(=O)[C@H](CC(C)C)NC(=O)[C@H](CCCCN)NC(=O)[C@H](CCCCN)NC(=O)[C@H](CCCCN)NC(=O)[C@H](C)N)C(C)C)[C@@H](C)O)C(=O)N[C@@H](CCCCN)C(=O)N[C@@H](CC(N)=O)C(=O)O [GM130-NLS phospho-S25] (H-AKKKLREYQQRN[pS]PGVPTGAKKKKKIKN-OH; N-terminus and C-terminus assumed) | better binding affinities | endothermic curve | at least three orders of magnitude lower |  |  |  |  | 
2 | O=C1NC(=NCc2cccs2)S/C1=C\c1ccc2ncccc2c1 [RO-3306] |  |  |  | reduced | enhanced | sufficient to block Cdk1 activity | morphological transition from rounded mitotic cells to a flat interphase shape | 
3 | AKKKLREYQQRNSPGVPTGAKKKKKIK [GM130-NLS WT] |  | exothermic profile |  |  |  |  |  | co-migration
